Experimental data published in patent publication US12453737B2, “Method for hydrating lyophilized cyclophosphamide composition and product thereof” (priority 2018, dated 2025).
Like-named read-outs stand apart in the source and are kept apart here.

Legend:
[1] = Stability in 40° C./75% RH stability test chamber, CPP content; assay type: physicochemical; conditions: raw material, comparison
Method: The CPP freeze-dried composition hydrated for 16 h was placed in 40° C./75% RH stability test chamber, was sampled after 1 month and 3 months, and determined for CPP contents, which were compared with CPP monohydrate obtained by prior art hydrating process.
The CPP freeze-dried composition hydrated for 16 h was placed in 40° C./75% RH stability test chamber, sampled after 1 month and 3 months for determining CPP contents.

[2] = Stability in 45° C. oven, CPP content; assay type: physicochemical; conditions: raw material, comparison
Method: The moisture content, CPP content and redissolving time were determined for CPP freeze-dried composition hydrated with saturated sodium chloride solution in the freeze-drying box, respectively. In addition, the CPP freeze-dried compositions hydrated for 16 h and 24 h were placed in 45° C. oven and sampled for determining CPP contents after 1 week and 2 weeks, respectively.
Moisture content, CPP content and redissolving time were determined for CPP freeze-dried composition hydrated with saturated sodium chloride solution in the dryer, respectively. In addition, the CPP freeze-dried composition hydrated for 16 h was placed in 45° C. oven, sampled after 1 week and 2 weeks, respectively and determined for CPP contents. The CPP freeze-dried composition hydrated for 16 h was placed in 40° C./75% RH stability test chamber, was sampled after 1 month and 3 months, and determined for CPP contents, which were compared with CPP monohydrate obtained by prior art hydrating process.
The moisture content, CPP content and redissolving time were determined for CPP freeze-dried composition hydrated with saturated potassium sulfate solution in the dryer, respectively. In addition, the CPP freeze-dried composition hydrated for 16 h was placed in 45° C. oven and was sampled for determining CPP contents after 1 week and 2 weeks, respectively. […]

[3] = assay type: physicochemical; conditions: hydration solution NA, 0.9% sodium chloride, 250 rpm, room temperature
Method: Then the glass vial was placed on cyclotron (HY-5, Shanghai Suhao intelligent system Co. Ltd) making the glass vial oscillate at 250 rpm at room temperature to dissolve the active ingredient completely. The redissolving time was recorded in Table 18.

[4] = assay type: physicochemical; conditions: reconstituted with 0.9% sodium chloride injection to 20 mg/ml
Method: Then content and impurity profiles in Room Temperature (RT) and Refrigerator (2-8° C.) are determined respectively.

[5] = assay type: physicochemical; conditions: no hydration solution
Method: The hydrated CPP freeze-dried composition was stirred by weighting scoop gently until flowable powder comes into being. Then 1-2 g test sample was added on injection plate. Test method and parameters were as follows:
It will be understood by a person of ordinary skill in the art that a common approach to defining the distribution width is to cite three values on the x-axis, the D10, D50, and D90. As used herein, the term (“D50” refers to the median particle diameter, wherein half of the particle population has a diameter below such value. As used herein, the teed “D90,” refers to the particle diameter wherein 90% of the particle population has a diameter below such value. As used herein, the term “D10,” refers to the particle diameter wherein 10% of the particle population has a diameter below such value. PSD results were listed in Table 19.

[6] = assay type: physicochemical; conditions: hydration pressure 50 kPa
[7] = Skeletal density (gas pycnometer); assay type: physicochemical; conditions: no strength, no hydration solution
Method: Skeletal Density, also known as true density, is determined at room temperature by Gas Pycnometer (Micromeritics Accupyc II 1340).

[8] = assay type: physicochemical; conditions: strength NA, hydration solution NA
Method: BD is calculated by the following formula: BD (g/mL)=W/V0 • wherein • W is the theoretical weight, g; • V0 is the macroscopic volume, mL. • V0 is calculated by the following formula: V0 (mL)=πD^2h/4 • wherein • D is the theoretical inside diameter, cm; • h is the height, cm.

[9] = assay type: physicochemical; conditions: no strength, no hydration solution
Method: TD of the test sample is measured as per the Method I described in USP <616> which is obtained by mechanically tapping a graduated measuring cylinder (TAP Density Tester, Sotax TD2) containing the test sample.

O=P1(N(CCCl)CCCl)NCCCO1 (stereo not shown) [CPP monohydrate raw material, Cyclophosphamide monohydrate]
Stability-CPP content % 40° C./75% RH-3 months [1]: 86.1% | Stability-CPP content % 45° C.-2 weeks [2]: 101.8%

O=P1(N(CCCl)CCCl)NCCCO1 (stereo not drawn) [P—[N,N-bis(β-chloroethyl)]-1-oxa-3-aza-2-phosphocyclohexane-P-oxide]
Redissolving Time ([3]; strength 0.5 g): 8.7 min | Redissolving Time ([3]; strength 1 g): 11.2 min | Redissolving Time ([3]; strength 2 g): 16.4 min | Impurity A ([4]; 0 h (initial)): 0.03 | Impurity B ([4]; 0 h (initial)): 0.03 | Impurity D ([4]; 0 h (initial)): 0.00 | Individual unknown impurity ([4]; 0 h (initial)): 0.08 | Total impurities ([4]; 0 h (initial)): 0.15 | Content ([4]; 3 Days (2-8° C.)): 96.7% | Impurity A ([4]; 3 Days (2-8° C.)): 0.00 | Impurity B ([4]; 3 Days (2-8° C.)): 0.45 | Impurity D ([4]; 3 Days (2-8° C.)): 0.00 | Individual unknown impurity ([4]; 3 Days (2-8° C.)): 0.09 | Total impurities ([4]; 3 Days (2-8° C.)): 0.57 | Content ([4]; 6 Days (2-8° C.)): 95.2% | Impurity A ([4]; 6 Days (2-8° C.)): 0.00 | Impurity B ([4]; 6 Days (2-8° C.)): 0.64 | Impurity D ([4]; 6 Days (2-8° C.)): 0.00 | Individual unknown impurity ([4]; 6 Days (2-8° C.)): 0.12 | Total impurities ([4]; 6 Days (2-8° C.)): 0.77 | Content ([4]; 6 h (RT)): 95.3% | Impurity A ([4]; 6 h (RT)): 0.00 | Impurity B ([4]; 6 h (RT)): 0.71 | Impurity D ([4]; 6 h (RT)): 0.00 | Individual unknown impurity ([4]; 6 h (RT)): 0.06 | Total impurities ([4]; 6 h (RT)): 0.81 | Content ([4]; 12 h (RT)): 96.7% | Impurity A ([4]; 12 h (RT)): 0.00 | Impurity B ([4]; 12 h (RT)): 1.01 | Impurity D ([4]; 12 h (RT)): 0.05 | Individual unknown impurity ([4]; 12 h (RT)): 0.14 | Total impurities ([4]; 12 h (RT)): 1.33 | Content ([4]; 24 h (RT)): 97.0% | Impurity A ([4]; 24 h (RT)): 0.03 | Impurity B ([4]; 24 h (RT)): 1.82 | Impurity D ([4]; 24 h (RT)): 0.30 | Individual unknown impurity ([4]; 24 h (RT)): 0.47 | Total impurities ([4]; 24 h (RT)): 2.64 | D10 (μm) [5]: 5.6 μm | D50 (μm) [5]: 34.8 μm | D90 (μm) [5]: 262.0 μm | Content (%) ([6]; 45° C. -1 Week): 82.6% | Impurity A (%) ([6]; 45° C. -1 Week): 0.65% | Impurity B (%) ([6]; 45° C. -1 Week): 0.61% | Impurity D (%) ([6]; 45° C. -1 Week): 0.71% | Max. individual unknown impurity (%) ([6]; 45° C. -1 Week): 2.01% | Total impurities (%) ([6]; 45° C. -1 Week): 5.66% | Content (%) ([6]; 45° C. -2 Weeks): 45.8% | Impurity A (%) ([6]; 45° C. -2 Weeks): 1.82% | Impurity B (%) ([6]; 45° C. -2 Weeks): 1.40% | Impurity D (%) ([6]; 45° C. -2 Weeks): 0.98% | Max. individual unknown impurity (%) ([6]; 45° C. -2 Weeks): 1.56% | Total impurities (%) ([6]; 45° C. -2 Weeks): 15.59% | Skeletal Density [7]: 1.4286 g/mL | Bulk Density [8]: 0.6246 g/mL | Tapped Density [9]: 0.9369 g/mL
